This note sets out measurements from patent publication US9796672B2, “Isoindoline compositions and methods for treating neurodegenerative disease” (Cognition Therapeutics, Inc., priority 2014, dated 2017).

Bounds are passed on as bounds.

The nature of data set [1]: Mouse liver microsome (MLM) stability. It is filed as in vitro ADME. The protocol:
A first pharmacokinetic study was performed in microsomes of mice mouse liver microsomes, MLM) by a commercial contract research organization. The studies were performed according to Obach, R. S et al. (1997) J. Pharmacol. Exp. Ther., 283: 46-58, which is incorporated herein by reference.

A further data set addresses Sigma-2 receptor. Put plainly: Sigma-2 receptor competitive radioligand binding assay. Also on record: species or system rat. Conditions: read-out: Sigma-2 Receptor Affinity, Ki.
The target in another data set is potassium channel hERG (Homo sapiens (Human), UniProt Q12809). Put plainly: In vitro toxicity, hERG inhibition. The format is biochemical.
For a further data set, the target named is Sigma-1 receptor. Put plainly: Sigma-1 receptor competitive radioligand binding assay. Conditions: read-out: Sigma-1 Receptor Affinity, Ki.
The test system of the next data set is neuronal cultures. Put plainly: Functional neuronal phenotype in neuronal cultures. It is filed as cell-based. Further details: key: Antagonist: antagonists (block Abeta signaling); Agonist: agonists (block Abeta signaling with U-shaped dose-response curve and toxicity at high doses); Inactive: inactive (no effect in neuronal cultures).
Data set [2] has as its system Abeta oligomer-induced membrane trafficking deficits in primary hippocampal neurons. Put plainly: Membrane trafficking/exocytosis (MTT) assay. The following applies: read-out: Membrane Trafficking EC50; compound dosed prior to Abeta oligomer addition.
Description: Primary hippocampal neurons from E18 Sprague-Dawley rat embryos were plated at optimized concentrations in 384 well plates in NB media (Invitrogen). Neurons were maintained in cultures for 3 weeks, with twice weekly feeding of NB media with N2 supplement (Invitrogen).
MTT reagent (3-(4,5-dimethylthizaol-2yl)-2,5diphenyl tetrazolium bromide) (Roche Molecular Biochemicals) was reconstituted in phosphate buffered saline to 5 mg/mL. 10 μL of MTT labeling reagent is added to each well and incubated at 37° C. for 1 h, then imaged. Exocytosis was assessed by automated microscopy and image processing to quantify the amount of endocytosed and exocytosed formazan.
Each assay plate was formatted so that compounds are tested with and without Abeta oligomer on each plate. […] Reduced formazan was first visible in intracellular vesicles. […] The dye precipitated in the aqueous environment of the culture and formed needle-shaped crystals on the surface of the neuron.

Sequence of potassium channel hERG (Q12809 whole entry): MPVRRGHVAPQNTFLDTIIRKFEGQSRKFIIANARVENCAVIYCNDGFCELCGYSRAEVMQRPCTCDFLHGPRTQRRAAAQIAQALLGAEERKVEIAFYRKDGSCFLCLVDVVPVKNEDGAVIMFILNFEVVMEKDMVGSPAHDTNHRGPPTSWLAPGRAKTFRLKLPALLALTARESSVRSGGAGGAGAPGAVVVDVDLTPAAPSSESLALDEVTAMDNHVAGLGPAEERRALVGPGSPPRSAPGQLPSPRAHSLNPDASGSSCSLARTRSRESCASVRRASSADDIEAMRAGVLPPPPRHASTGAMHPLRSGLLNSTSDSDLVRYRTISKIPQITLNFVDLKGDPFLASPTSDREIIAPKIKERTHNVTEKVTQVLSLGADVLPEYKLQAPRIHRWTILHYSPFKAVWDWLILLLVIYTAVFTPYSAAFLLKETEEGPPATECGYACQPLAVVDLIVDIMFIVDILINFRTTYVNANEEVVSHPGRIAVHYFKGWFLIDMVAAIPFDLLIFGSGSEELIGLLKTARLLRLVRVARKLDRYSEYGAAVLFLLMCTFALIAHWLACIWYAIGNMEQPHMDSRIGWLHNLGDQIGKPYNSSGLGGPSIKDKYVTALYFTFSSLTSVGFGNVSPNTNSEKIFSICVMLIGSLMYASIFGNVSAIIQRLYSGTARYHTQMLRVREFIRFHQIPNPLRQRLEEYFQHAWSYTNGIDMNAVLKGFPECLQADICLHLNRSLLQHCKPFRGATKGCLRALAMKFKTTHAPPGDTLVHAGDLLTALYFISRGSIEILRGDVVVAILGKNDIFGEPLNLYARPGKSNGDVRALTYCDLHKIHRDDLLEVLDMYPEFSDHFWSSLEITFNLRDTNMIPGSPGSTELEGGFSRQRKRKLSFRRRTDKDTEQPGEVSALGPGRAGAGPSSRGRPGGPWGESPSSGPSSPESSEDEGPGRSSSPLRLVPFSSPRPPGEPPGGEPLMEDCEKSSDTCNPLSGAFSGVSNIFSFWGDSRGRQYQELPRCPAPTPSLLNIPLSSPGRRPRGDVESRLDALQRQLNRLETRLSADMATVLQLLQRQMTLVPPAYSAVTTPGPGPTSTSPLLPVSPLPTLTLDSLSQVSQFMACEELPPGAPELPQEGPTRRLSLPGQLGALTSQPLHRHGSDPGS
Description for Sigma-2 receptor: Radioligand binding assays for Sigma-1 receptors and Sigma-2 receptors were carried out by a commercial contract research organization. For Sigma-1 binding, various concentrations of test compounds from 100 μM to 1 nM were used to displace 8 nM [^3H](+)pentazocine from endogenous receptors on Jurkat cell membranes (Ganapathy M E et al. 1991, J Pharmacol. Exp. Ther. 289:251-260). 10 μM Haloperidol was used to define non-specific binding. For Sigma-2 receptors various concentrations of test compounds from 100 μM to 1 nM were used to displace 5 nM [^3H] […] (Bowen W D, et al. 1993, Mol. Neuropharmcol 3:117-126). 10 μM Haloperidol was used to define non-specific binding. Reactions were terminated by rapid filtration through Whatman GF/C filters using a Brandel 12R cell harvester followed by two washes with ice-cold buffer. Radioactivity on the dried filter discs was measured using a liquid scintillation analyzer (Tri-Carb 2900TR; PerkinElmer Life and Analytical Sciences). The displacement curves were plotted and the Ki values of the test ligands for the receptor subtypes were determined using GraphPad Prism (GraphPad Software Inc., San Diego, Calif.). The percentage specific binding was determined by dividing the difference between total bound (disintegrations per minute) and nonspecific bound (disintegrations per minute) by the total bound (disintegrations per minute).
The affinity of candidate sigma-2 ligand compounds at sigma-1 and sigma-2 receptors was also determined by displacement of different known labeled sigma-2 or sigma-1 ligands. Filtration assays were conducted according the previously published procedure (Xu, et al., 2005). Test compounds were dissolved in N,N-Dimethylformamide (DMF), dimethyl sulfoxide (DMSO) or ethanol and then diluted in 50 mM Tris-HCl pH 7.4 buffer containing 150 mM NaCl and 100 mM EDTA. Membrane homogenates were made from guinea pig brain for sigma-1 binding assay and rat liver for sigma-2 binding assay. Membrane homogenates were diluted with 50 mM Tris-HCl buffer, pH 8.0 and incubated at 25° C. in a total volume of 150 uL in 96 well plates with the radioligand and test compounds with concentrations ranging from 0.1 nM to 10 uM. After incubation was completed, the reactions were terminated by the addition of 150 uL of ice-cold wash buffer (10 mM Tris HCl, 150 mM NaCl, pH 7.4) using a 96 channel transfer pipette (Fisher Scientific, Pittsburgh, Pa.) and the samples harvested and filtered rapidly through 96 well fiber glass filter plate (Millipore, Billerica, Mass.) that had been presoaked with 100 uL of 50 mM Tris-HCl buffer. Each filter was washed four times with 200 uL of ice-cold wash buffer (10 mM Tris-HCl, 150 mM NaCl, pH 7.4). A Wallac 1450 MicroBeta liquid scintillation counter (Perkin Elmer, Boston, Mass.) was used to quantitate the bound radioactivity.
Nonspecific binding was determined from samples that contained 10 uM of cold haloperidol.
The binding affinity, Ki values was calculated using the method of Cheng and Prusoff.
Description for neuronal cultures: Neuronal cultures are treated with various concentrations of sigma compounds for 24 hours and nuclear intensity compared to vehicle is measured.
Description for potassium channel hERG: In vitro toxicity for Test Compounds is tested in a number of standard assays.

Usually Ki stands for a dissociation constant, usually derived from enzyme kinetics or from competition with a known ligand. By IC50 is commonly meant the concentration needed to halve the response being measured. Regarding `CC(C)(CCc1ccc(O)c(OC(F)(F)F)c1)N1Cc2c(F)ccc(F)c2C1` [compound 55], the “Mouse liver microsomes, MLM t½” value in data set [1] (mouse, microsomes) was 34 min. Moreover, the Ki worked out at 310 nM on Sigma-2 receptor and 360 nM on Sigma-1 receptor. The IC50 at potassium channel hERG is 100 µM.

For the molecule `COc1cc(CCC(C)(C)N2Cc3ccc(F)cc3C2)ccc1OC(=O)N(C)C` [compound 50], the “Mouse liver microsomes, MLM t½” value in data set [1] (mouse, microsomes) is 33 min. Further, the Ki on Sigma-2 receptor was 37 nM; at Sigma-1 receptor, 750 nM. In the data set on neuronal cultures, the neuronal phenotype entry is “weak and antagonist”. The same molecule had a half-maximal inhibitory concentration (IC50) against potassium channel hERG of 4.4 µM.

For the molecule `CC(C)Oc1ccc(CC[C@@H](C)N2Cc3cc4c(cc3C2)OCO4)cc1OC(C)C` [compound 40], the “Mouse liver microsomes, MLM t½” value in data set [1] (mouse, microsomes) was 6 min. In addition, the Ki was found to be 8.9 nM on Sigma-2 receptor and 7.8 nM at Sigma-1 receptor. This molecule also gave an IC50 against potassium channel hERG of 0.35 µM.

For orientation: EC50 means the concentration giving half of the maximal effect. Regarding `COc1cc(CCC(C)(C)N2Cc3cccc(C(=O)N4CCN(C)CC4)c3C2)ccc1O` [compound 82], in data set [2], the EC50 amounted to 100 µM. The “Mouse liver microsomes, MLM t½” value in data set [1] (mouse, microsomes) turned out to be 27 min. In the data set with neuronal cultures, the neuronal phenotype result is listed as “Inactive”. The IC50 against potassium channel hERG is 52 µM.

In the case of `CC(C)(C)Oc1cc(CCC(C)(C)N2Cc3cccc(S(C)(=O)=O)c3C2)ccc1O` [compound 66], in data set [1] (mouse, microsomes), the “Mouse liver microsomes, MLM t½” value was 10 min. Moreover, the values for the Ki at Sigma-2 receptor and on Sigma-1 receptor were 2.6 nM and 130 nM, respectively. Also, the neuronal phenotype result with neuronal cultures was “Inactive”. Also, on potassium channel hERG, the midpoint of inhibition, the IC50, lay at 19 µM.

In the case of `CC(C)(CCc1ccc(O)c(OC(F)(F)F)c1)N1Cc2cccc(S(C)(=O)=O)c2C1` [compound 67], the “Mouse liver microsomes, MLM t½” value in data set [1] (mouse, microsomes) worked out at 39 min. For the same molecule, the figures for the Ki on Sigma-2 receptor and on Sigma-1 receptor were 8.1 nM and 55 nM, respectively. Also, the neuronal phenotype entry in the data set on neuronal cultures is reported as “Antagonist”. Moreover, the IC50 against potassium channel hERG was 44 µM.

Regarding `COc1cc(CC[C@@H](C)N2Cc3cc(Cl)c(Cl)cc3C2)ccc1O` [compound 3], the EC50 in data set [2] turned out to be 3.8 µM. The “Mouse liver microsomes, MLM t½” value in data set [1] (mouse, microsomes) is 21 min. Also, the Ki stood at 240 nM on Sigma-2 receptor and 23 nM on Sigma-1 receptor. In the data set with neuronal cultures, the neuronal phenotype result is reported as “Neuroactive”.

As for `CC(C)Oc1cc(CC[C@@H](C)N2Cc3ccc(F)cc3C2)ccc1O` [compound 37], the “Mouse liver microsomes, MLM t½” value in data set [1] (mouse, microsomes) worked out at 5 min. The Ki at Sigma-2 receptor was 140 nM; at Sigma-1 receptor, 9.1 nM. This molecule yielded an IC50 against potassium channel hERG of 0.48 µM.

As to `C[C@H](CCc1ccc(OC(=O)N(C)C)c(OC(F)(F)F)c1)N1Cc2ccc(F)cc2C1` [compound 43], the “Mouse liver microsomes, MLM t½” value in data set [1] (mouse, microsomes) is 5 min. The Ki on Sigma-2 receptor was 140 nM; at Sigma-1 receptor, 380 nM. The same molecule returned an IC50 against potassium channel hERG of 0.67 µM.

On to `COc1cc(CC[C@@H](C)N2Cc3ccc(Cl)cc3C2)ccc1O` [compound 1], for which, in data set [1] (mouse, microsomes), the “Mouse liver microsomes, MLM t½” value is recorded as 11 min. Besides, the Ki was 25 nM on Sigma-2 receptor and 31 nM at Sigma-1 receptor. Besides, the IC50 against potassium channel hERG turned out to be 0.43 µM.

`CC(C)Oc1cc(CCC(C)(C)N2Cc3ccc(S(C)(=O)=O)cc3C2)ccc1O` [compound 70]: the “Mouse liver microsomes, MLM t½” value in data set [1] (mouse, microsomes) stood at 79 min. Moreover, the inhibition constant Ki on Sigma-2 receptor came to 9 nM; at Sigma-1 receptor, 50 nM. Further, the neuronal phenotype entry in the data set on neuronal cultures is “Inactive”. On potassium channel hERG, this molecule displayed an IC50 of 3.1 µM.

For the molecule `COc1cc(CCC(C)(C)N2Cc3cccc(C(=O)N4CCOCC4)c3C2)ccc1O` [compound 80], in data set [2], the EC50 came to 100 µM. In data set [1] (mouse, microsomes), the “Mouse liver microsomes, MLM t½” value is reported as 45 min. In addition, the Ki on Sigma-2 receptor was 1400 nM. In the data set on neuronal cultures, the neuronal phenotype result is “Inactive”. This molecule also yielded an IC50 against potassium channel hERG of 7.4 µM.

On to `COc1cc(CCC(C)(C)N2Cc3cccc(C(=O)N(C)CCN(C)C)c3C2)ccc1O` [compound 81], for which, in data set [2], the 50% effective concentration (EC50) was 100 µM. Moreover, the “Mouse liver microsomes, MLM t½” value in data set [1] (mouse, microsomes) was found to be 88 min. Besides, the neuronal phenotype entry in the data set with neuronal cultures is “Inactive”. At potassium channel hERG, this molecule yielded an IC50 of 10 µM.

In the case of `COC[C@H](CCc1ccc(Cl)c(Cl)c1)N1Cc2ccc(F)cc2C1` [compound 46], the “Mouse liver microsomes, MLM t½” value in data set [1] (mouse, microsomes) came out at 5 min. The results for the inhibitory constant (Ki) on Sigma-2 receptor and at Sigma-1 receptor were 160 nM and 94 nM, respectively. Also, the neuronal phenotype result in the data set with neuronal cultures is “Inactive”. This molecule also gave an IC50 on potassium channel hERG of 1.6 µM.

As to `COc1cc(CC[C@@H](C)N2Cc3cc4c(cc3C2)OCO4)ccc1O` [compound 6], in data set [2], the EC50 stood at 0.3 µM. Further, in data set [1] (mouse liver microsomes), the “Mouse liver microsomes, MLM t½” value came out at 20 min. Further, the neuronal phenotype entry in the data set on neuronal cultures is reported as “Antagonist”. For the same molecule, the IC50 against potassium channel hERG is 0.98 µM.

For the molecule `COc1cc(CC[C@@H](C)N2Cc3cccc(S(C)(=O)=O)c3C2)ccc1O` [compound 65], in data set [1] (mouse, microsomes), the “Mouse liver microsomes, MLM t½” value is listed as 41 min. Also, the values for the Ki on Sigma-2 receptor and on Sigma-1 receptor were 190 nM and 1300 nM, respectively. Also, in the data set on neuronal cultures, the neuronal phenotype result was “Neuroactive”. At potassium channel hERG, this molecule showed an IC50 of 26 µM.

Regarding `Cc1ccc2c(c1)CN([C@H](C)CCc1ccc(Cl)c(Cl)c1)C2` [compound 13], the EC50 in data set [2] worked out at 0.3 µM. Moreover, the “Mouse liver microsomes, MLM t½” value in data set [1] (mouse, microsomes) stood at 3 min. In the data set on neuronal cultures, the neuronal phenotype entry was “Antagonist”. This molecule displayed an IC50 at potassium channel hERG of 0.25 µM.

As for `CN(C)C(=O)c1cccc2c1CN(C(C)(C)CCc1ccc(O)c(OC(C)(C)C)c1)C2` [compound 59], the “Mouse liver microsomes, MLM t½” value in data set [1] (mouse, microsomes) is 8 min. Further, the Ki on Sigma-2 receptor was determined as 57 nM; at Sigma-1 receptor it was 10000 nM. In the data set on neuronal cultures, the neuronal phenotype entry is given as “Inactive”. For the same molecule, at potassium channel hERG, half-maximal inhibition (IC50) was put at 18 µM.

For `COc1cc(CC[C@@H](C)N2Cc3cccc(F)c3C2)ccc1OCCO` [compound 51], the “Mouse liver microsomes, MLM t½” value in data set [1] (mouse, microsomes) is recorded as 66 min. For the same molecule, the Ki at Sigma-2 receptor stood at 800 nM; on Sigma-1 receptor, 77 nM. Moreover, in the data set with neuronal cultures, the neuronal phenotype result is given as “Neuroactive”. On potassium channel hERG, this molecule showed a half-maximal inhibitory concentration (IC50) of 1.2 µM.

With `C[C@H](CCc1ccc(Cl)c(Cl)c1)N1Cc2cc(Cl)c(Cl)cc2C1` [compound 5], the EC50 in data set [2] is greater than 20 µM. Besides, the “Mouse liver microsomes, MLM t½” value in data set [1] (mouse, microsomes) is 53 min. Further, the Ki at Sigma-2 receptor was 2.7 nM; at Sigma-1 receptor, 56 nM. In addition, the neuronal phenotype result with neuronal cultures was “Inactive”.

`COc1cc(CC[C@@H](C)N2Cc3cc(OC)c(OC)cc3C2)ccc1O` [compound 7]: the “Mouse liver microsomes, MLM t½” value in data set [1] (mouse liver microsomes) was 155 min. Also, the values for the Ki at Sigma-2 receptor and at Sigma-1 receptor were 68 nM and 42 nM, respectively.

As to `CC(C)COc1cc(CCC(C)(C)N2Cc3ccc(S(C)(=O)=O)cc3C2)ccc1O` [compound 87], the “Mouse liver microsomes, MLM t½” value in data set [1] (mouse, microsomes) was found to be 86 min. The results for the Ki at Sigma-2 receptor and on Sigma-1 receptor were 1.1 nM and 69 nM, respectively. In addition, on potassium channel hERG, 0.57 µM corresponded to half-maximal inhibition (IC50).

As to `COc1cc(CC[C@@H](C)N2Cc3cccc(F)c3C2)ccc1O` [compound 8], the EC50 in data set [2] lay in the range of 0.25 to 0.4 µM. The “Mouse liver microsomes, MLM t½” value in data set [1] (mouse, microsomes) is 16 min. For the same molecule, in the data set on neuronal cultures, the neuronal phenotype entry is reported as “Antagonist”. Also, the Ki at Sigma-1 receptor came to 41 nM.

On to `C[C@H](CCc1ccc(Cl)c(Cl)c1)N1Cc2ccc(C(F)(F)F)cc2C1` [compound 4], for which the EC50 in data set [2] is greater than 20 µM. In addition, in data set [1] (mouse, microsomes), the “Mouse liver microsomes, MLM t½” value was determined as 40 min. In addition, the Ki at Sigma-2 receptor turned out to be 2.2 nM; at Sigma-1 receptor, 33 nM. The neuronal phenotype result with neuronal cultures was “Inactive”.

As to `COCCN(C)C(=O)c1cccc2c1CN(C(C)(C)CCc1ccc(O)c(OC)c1)C2` [compound 86], the “Mouse liver microsomes, MLM t½” value in data set [1] (mouse, microsomes) is listed as 19 min. Besides, the Ki at Sigma-2 receptor and on Sigma-1 receptor was 10000 nM each time. Also, the IC50 at potassium channel hERG was determined as 5.1 µM.

For `COc1cc(CCC(C)(C)N2Cc3cccc(C(=O)N(C)CCO)c3C2)ccc1O` [compound 85], the “Mouse liver microsomes, MLM t½” value in data set [1] (mouse, microsomes) was 194 min. Besides, the Ki at Sigma-2 receptor came to 360 nM; on Sigma-1 receptor, 10000 nM. For the same molecule, the IC50 on potassium channel hERG is 33 µM.
